Assay results from patent EP2218450A1, “Memantine for treating bipolar mood disorders resistant to conventional treatments” (Serra, Gino, priority 2009, dated 2010).
Where two headings read alike, the source gives them in different places.

Key:
[1] = system: dopamine receptor sensitization; settings: cited from earlier work
OCD = settings: cited from earlier work
depressive symptoms = settings: cited from earlier work
bipolar patients = system: bipolar patients
Description: We report, in order to exemplify, the most clinically significant cases in bipolar patients (DSM IV-TR) resistant to hitherto available treatments.
Memantine was administered at 10-30 mg/day (according to the doses used for Alzheimer Disease and in many off-label uses of the drug in other psychiatric disorders) to 18 bipolar patients (mean age 42, range 24-61, SD 11): 13 BP type 1 (11 women and 2 men) and 5 BP type 2 (3 women and 2 men).
The Memantine treatment was added to the ongoing treatment which was left unmodified. The severity of the patients' condition before Memantine, and the change after Memantine addition was evaluated on the GCI-BP Overall Bipolar Illness scale: • GCI-BP Overall Bipolar Illness: Severity • 1. Normal, not ill; • 2. Minimally ill; • 3. Mildly ill; • 4. Moderately ill; • 5. Markedly ill; • 6. Severely ill; • 7. Very severely ill.
All patients have been followed-up for 24 weeks. […] Very much improved • 2. Much improved • 3. […] No change • 5. Minimally worse • 6. Much worse • 7. Very much worse

[2] = system: Pervasive development disorders; settings: five open clinical studies and one case report; cited from earlier work
binge eating disorder = settings: five obese patients affected by binge eating disorder; cited from earlier work
NMDA glutamate receptor = settings: compared to more powerful NMDA antagonists such as phencyclidine, ketamine and MK-801; cited from earlier work
catatonic schizophrenia = settings: cited from earlier work
addictions = settings: cited from earlier work
[3] = at 24 weeks, Memantine 10-30 mg/day added to ongoing treatment, 18 bipolar patients

O=C(O)C1CN(CCCP(=O)(O)O)CCN1 (stereo not drawn) [CPP]
prevention of dopamine D2 receptors sensitization induced by imipramine [1]: fails to pevent

C[C@]12N[C@H](Cc3ccccc31)c1ccccc12 [MK.801]
prevention of dopamine receptor sensitization induced by electroconvulsive shock [1]: completely prevents
prevention of dopamine receptor sensitization induced by imipramine [1]: completely prevents

CC12CC3CC(C)(C1)CC(N)(C3)C2 [Memantine]
patients with symptomatic improvements (OCD; case reports, three patients with OCD, 5-15 mg a day): Two
patients with symptomatic improvement (OCD; open-label study, out of 14, Memantine 20 mg in combination with SSRIs): 6 patients
effect on depressive symptoms (depressive symptoms; patient, 10 mg/die): improvement in the depressive symptoms
effect on depressive symptoms (depressive symptoms; person, 20 mg/die in combination with conventional antidepressant treatment, within a week): improvement in various depressive symptoms
patients very much or much improved (bipolar patients; after 24 weeks of Memantine treatment, 18 bipolar patients): 72.2%
rapid cyclers that reached stability (bipolar patients; among the ten rapid cyclers, 24 weeks): six
patients remained unchanged (score 4), GCI-BP overall Bipolar Illness: Change from preceding phase (bipolar patients; [3]): 3 patients
patients scored 1 (very much improved), GCI-BP overall Bipolar Illness: Change from preceding phase (bipolar patients; [3]): 9 patients
patients scored 2 (much improved), GCI-BP overall Bipolar Illness: Change from preceding phase (bipolar patients; [3]): 4 patients
patients scored 3 (minimally improved), GCI-BP overall Bipolar Illness: Change from preceding phase (bipolar patients; [3]): 2 patients
mean time to improvement (bipolar patients; range 6-132, SD 48,4, Memantine 10-30 mg/day): 55 days
effect on symptoms [2]: symptomatic improvement
effect on appetite, binge eating and body weight (binge eating disorder): diminished appetite, the disappearance of binge eating (in two out of five patients) and a reduction of body weight
affinity for the receptor (NMDA glutamate receptor): low affinity
effect in schizophrenia, controlled clinical trial (catatonic schizophrenia; in combination with an atypical antipsychotic): No improvement was observed
effect on symptoms of catatonic schizophrenia (catatonic schizophrenia; three case reports, 10 mg twice a day in two patients, 10 mg per day in the other): improvement in the symptoms
benefit in nicotine or cocaine addiction (addictions): no benefit has been detected
symptoms of heroin withdrawal (addictions): effective in reducing the symptoms of heroin withdrawal
symptoms of alcohol withdrawal syndrome (addictions; one study (41)): reduction of the symptoms of alcohol withdrawal syndrome
craving for alcohol (addictions; two studies (39, 40)): reduction in craving for alcohol
alcohol consumption (addictions; two studies (42, 43), in one the effect did not significantly differ from placebo): reduction in alcohol consumption
